Measured values published in ChEMBL document CHEMBL4428086, “Quassinoids: Viral protein R inhibitors from Picrasma javanica bark collected in Myanmar for HIV infection” (Bioorg Med Chem Lett, 2016).

Key:
Type in all cases: cell-based
[1] = tested on: Human immunodeficiency virus 1; experiment: Inhibition of c-myc and His6-tagged full length HIV1 NL4-3 Vpr transfected in human TREx-HeLa cells assessed as cell proliferation at 1.25 uM after 48 hrs in presence of tetracycline by WST-8 assay (reference value: 100 +/- 1%); design: scale not given: the % may be the effect or the level left
[2] = tested on: Human immunodeficiency virus 1; experiment: Inhibition of c-myc and His6-tagged full length HIV1 NL4-3 Vpr transfected in human TREx-HeLa cells assessed as cell proliferation at 2.5 uM after 48 hrs in presence of tetracycline by WST-8 assay (reference value: 100 +/- 1%); design: scale not given: the % may be the effect or the level left
[3] = tested on: Human immunodeficiency virus 1; experiment: Inhibition of c-myc and His6-tagged full length HIV1 NL4-3 Vpr transfected in human TREx-HeLa cells assessed as cell proliferation at 5 uM after 48 hrs in presence of tetracycline by WST-8 assay (reference value: 100 +/- 1%); design: scale not given: the % may be the effect or the level left
HeLa = experiment: Cytotoxicity against human TREx-HeLa cells assessed as cell viability at 2.5 uM after 48 hrs by WST-8 assay
[4] = tested on: Human immunodeficiency virus 1; experiment: Inhibition of c-myc and His6-tagged full length HIV1 NL4-3 Vpr transfected in human TREx-HeLa cells assessed as cell proliferation at 1.25 uM after 48 hrs in presence of tetracycline by WST-8 assay

| SMILES | Activity [1] [%] | Activity [2] [%] | Activity [3] [%] | Activity (HeLa) | inhibition [4] |
| --- | --- | --- | --- | --- | --- |
| COC1=C[C@@H](O)[C@@H]2C[C@H]3OC(=O)C[C@H]4C(C)=C(OC)C(=O)[C@H]([C@@]2(C)C1=O)[C@@]34C | 140 | 138 | 141 | Non-Toxic |  |
| COC1=CC[C@@H]2C[C@H]3OC(=O)C[C@H]4C(C)=C(OC)C(=O)[C@H]([C@@]2(C)C1=O)[C@@]34C | 157 | 159 | 163 | Non-Toxic |  |
| COC1=CC[C@@H]2C[C@H]3OC(=O)C[C@H]4C(CO)=C(OC)C(=O)[C@H]([C@@]2(C)C1=O)[C@@]34C | 148 | 147 | 150 | Non-Toxic |  |
| COC1=C(OC)C(=O)[C@@]2(C)[C@H](C1)C[C@H]1OC(=O)C[C@H]3C(C)=C(OC)C(=O)[C@H]2[C@@]13C | 112 | 136 | 134 | Non-Toxic |  |
| COC1=CC(=O)[C@@H]2C[C@H]3OC(=O)C[C@H]4C(C)=C(OC)C(=O)[C@H]([C@@]2(C)C1=O)[C@@]34C | 117 | 155 | 155 | Non-Toxic |  |
| COC1=C(OC)C(=O)[C@@]2(C)[C@H](C1)C[C@H]1OC(=O)C[C@@]3(O)C(C)=C(OC)C(=O)[C@H]2[C@@]13C | 141 | 138 | 139 | Non-Toxic |  |
| COC1=C(C)[C@@H]2CC(=O)O[C@@H]3C[C@H]4CC[C@H](OC)C(=O)[C@]4(C)[C@@H](C1=O)[C@@]32C | 165 | 168 | 173 | Non-Toxic |  |
| COC1=CC[C@@H]2C[C@H]3OC(=O)C=C4C(C)=C(OC)C(=O)[C@H]([C@@]2(C)C1=O)[C@]43C | 175 | 214 | 216 | Non-Toxic | Dose-dependent effect |
| COC1=C(C)[C@]2(O)CC(=O)O[C@@H]3C[C@H]4CC[C@H](O)C(=O)[C@]4(C)[C@@H](C1=O)[C@@]32C | 162 | 166 | 170 | Non-Toxic |  |
| COC1=CC[C@@H]2C[C@H]3OC(=O)C[C@H]4C(C=O)=C(OC)C(=O)[C@H]([C@@]2(C)C1=O)[C@@]34C | 131 | 153 | 152 | Non-Toxic |  |
| COc1c(C=O)c(O)cc2c1C(=O)c1ccccc1C2=O [DAMNACANTHAL] | 203 | 218 | 219 | Non-Toxic |  |
| COC1=CC[C@@H]2C[C@H]3OC(O)C[C@H]4C(C)=C(OC)C(=O)[C@H]([C@@]2(C)C1=O)[C@@]34C (stereo not given in full) | 170 | 174 | 178 | Non-Toxic |  |
| COC1=C(OC)C(=O)[C@@]2(C)[C@H](C1)C[C@H]1OC(=O)C[C@H]3C(CO)=C(OC)C(=O)[C@H]2[C@@]13C | 139 | 126 | 127 | Non-Toxic |  |
| COC1=CC[C@@H]2C[C@H]3OC(=O)C=C4C(CO)=C(OC)C(=O)[C@H]([C@@]2(C)C1=O)[C@]43C | 132 | 140 | 141 | Non-Toxic |  |
| COC1=C(C)[C@@H]2CC(=O)O[C@@H]3C[C@H]4CC[C@H](O)C(=O)[C@]4(C)[C@@H](C1=O)[C@@]32C | 156 | 156 | 158 | Non-Toxic |  |
| COC1=C(CO)[C@@H]2CC(=O)O[C@@H]3C[C@H]4CC[C@H](O)C(=O)[C@]4(C)[C@@H](C1=O)[C@@]32C | 102 | 137 | 135 | Non-Toxic |  |
